Experimental data: patent US7517889B2, “2,6-substituted-4-monosubstitutedamino-pyrimidine as prostaglandin D2 receptor antagonists” (Aventis Pharmaceuticals, Inc., priority 2004, dated 2009)
Where a name gives a salt, the structure may show the parent alone.

target: T1, DP receptor (Homo sapiens, UniProt Q13258); test: SPA cAMP assay in human LS174 T cells (human DP functional assay); type: cell-based; conditions: inhibition of PGD2 (15 nM final) stimulated cAMP, LS174T cells expressing endogenous DP receptor
T1 construct: the human cell line LS174T, which expresses the endogenous DP receptor; endogenous in cells; host or cells: LS174T human cell line
T1 sequence (Q13258 1-359): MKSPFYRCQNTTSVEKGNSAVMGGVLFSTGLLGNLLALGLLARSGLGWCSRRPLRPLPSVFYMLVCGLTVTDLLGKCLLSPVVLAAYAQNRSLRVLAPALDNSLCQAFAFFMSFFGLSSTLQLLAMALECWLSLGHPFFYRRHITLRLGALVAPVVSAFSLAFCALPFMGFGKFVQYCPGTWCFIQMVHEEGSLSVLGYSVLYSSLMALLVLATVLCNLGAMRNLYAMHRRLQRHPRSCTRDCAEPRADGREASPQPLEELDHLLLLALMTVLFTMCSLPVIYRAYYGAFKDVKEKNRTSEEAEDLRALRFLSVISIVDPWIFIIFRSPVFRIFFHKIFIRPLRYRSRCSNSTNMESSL
Protocol: The inhibitory effects of the compounds according to the invention are assessed in a human DP functional assay. A cAMP assay is employed using the human cell line LS174T, which expresses the endogenous DP receptor.
Protocol for SPA cAMP Assay in Human LS174 T Cells
• 1) Add equal volumes of tracer, antiserum and SPA anti-rabbit reagent to a bottle, ensuring that a sufficient volume of this mixture is prepared for the desired number of wells (150 μL/well). • 2) Mix thoroughly. • 3) This immunoreagent solution should be freshly prepared before each assay and not re-used.
Add 50 μL of […] IBMX into 100 mL PBS to make a final concentration of 100 μM and sonicate at 30° C. for 20 minutes.
Before each assay, it is freshly prepared. Add 3 μL of 10 mM stock solution to 20 mL DMSO, mix it thoroughly, and transfer 10 mL to 40 mL PBS.
Compound dilution is carried out in Biomex 2000 (Beckman) using Method 1_cAMP DP 11 points.
5 μL of each compound from the 10 mM stock compound plates is transferred to the wells of a 96-well plate respectively as below.
Fill the plate with 45 μL of DMSO except column 7 is filled with 28 μL DMSO. Pipette column 1 thoroughly, and transfer 12 μL into column 7 parallel. Perform 1:10 serial dilution from column 1 to column 6 and from column 7 to column 11 by transfer 5 μL to 45 μL DMSO to make following concentrations:
Fill a new 96-well plate with 247.5 μL of compound dilution buffer. Transfer 2.5 μL of serially diluted compounds from above plate to the new plate (1:100 dilution) as following:
Cell Growth • 1. […] Remove growth medium from cells. Cells in T165 flask are washed twice with 4 mL Trypsin followed by incubation at 37° C. and 5% CO2 for 3 minutes. • 4. Add 10 mL of medium and pipette thoroughly to separate the cells and count the cells. • 5. […] Assay Procedure Day 1 • Seed 45,000 cells/well in 200 μL medium in 96-well plates. Incubate the cell plate at 37° C., 5% CO2 and 95% humidity overnight. Day 2 • 1. Perform compound dilution. • 2. Prepare assay buffer, lysis buffer 1 & 2, PGD2 and standard. • 3. Aspirate media from the cells and add 100 μL of compound solution using Zymark Sciclone-ALH/FD protocol cAMP DP. • 4. Incubate the cells at 37° C., 5% CO2 and 95% humidity for 15 minutes. • 5. […] Aspirate media from the cells and add 50 μL of lysis buffer 1 using Zymark protocol cAMP DP lysis, and incubate at room temperature with shaking for 30 minutes. • 7. Add 150 μL immunoreagent to all wells (a total volume of 200 μL/well). • 8. Seal the plates and shake for 2 minutes, put into the chamber of the Wallac microtitre plate μ scintillation counter for 16 hours. […] Data Processing Set up standard curve of cAMP versus CPM.
The cAMP concentrations (pmol/mL) of unknown samples are calculated from a standard curve of cAMP versus CPM. % inhibition is calculated using the following formula: […]

| IC50 [nM] | SMILES |
| --- | --- |
| 4650 | COc1ccc(CCNc2cc(-c3cccc(OC)c3)nc(N(C)C)n2)cc1 [Example 19, 6-(3-Methoxy-phenyl)-N*4*-[2-(4-methoxy-phenyl)-ethyl]-N*2*,N*2*-dimethyl-pyrimidine-2,4-diamine hydrochloride] |
| 223 | CCOC(=O)C1(c2cccc(-c3cc(NCCc4ccc(Cl)cc4Cl)nc(OC)n3)c2)CCOCC1 [Example 80(c), 4-(3-{6-[2-(2,4-Dichloro-phenyl)-ethylamino]-2-methoxy-pyrimidin-4-yl}-phenyl)-tetrahydro-pyran-4-carboxylic acid ethyl ester] |
| 2.9 | COc1ccc(CCNc2cc(-c3cccc(S(N)(=O)=O)c3)nc(OC)n2)cc1 [Example 3, 3-{2-Methoxy-6-[2-(4-methoxy-phenyl)-ethylamino]-pyrimidin-4-yl}-benzenesulfonamide] |
| 64 | COc1ccc(CCNc2cc(-c3cccc4cnccc34)nc(OC)n2)cc1 [Example 8(g), (6-Isoquinolin-5-yl-2-methoxy-pyrimidin-4-yl)-[2-(4-methoxy-phenyl)-ethyl]-amine] |
| 0.6 | COc1nc(NCCc2c(F)cccc2Cl)cc(-c2cccc(COCC(=O)O)c2)n1 [Example 56, (3-{6-[2-(2-Chloro-6-fluoro-phenyl)-ethylamino]-2-methoxy-pyrimidin-4-yl}-benzyloxy)-acetic acid] |
| 393 | COc1nc(NCc2ccsc2)cc(-c2cccc(C(C)(C)C(=O)O)c2)n1 [Example 71, 2-(3-{2-Methoxy-6-[(thiophen-3-ylmethyl)-amino]-pyrimidin-4-yl}-phenyl)-2-methyl-propionic acid] |
| 0.3 | COc1nc(NCCc2ccc(Cl)cc2Cl)cc(-c2cccc(C(C)(C)C(=O)O)c2)n1 [Example 15(d), 2-(3-{6-[2-(2,4-Dichloro-phenyl)-ethylamino]-2-methoxy-pyrimidin-4-yl}-phenyl)-2-methyl-propionic acid hydrochloride] |
| 0.5 | COc1nc(NCCc2ccc(Cl)cc2Cl)cc(-c2cccc(C3(C(=O)O)CCCC3)c2)n1 [Example 74, 1-(3-{6-[2-(2,4-Dichloro-phenyl)-ethylamino]-2-methoxy-pyrimidin-4-yl}-phenyl)-cyclopentanecarboxylic acid hydrochloride] |
| 0.7 | COc1ccc(CCNc2cc(-c3cnc4ccccc4c3)nc(OC)n2)cc1 [Example 10(b), [2-(4-Methoxy-phenyl)-ethyl]-(2-methoxy-6-quinolin-3-yl-pyrimidin-4-yl)-amine] |
| 0.02 | COc1nc(NCCc2ccc(Cl)cc2Cl)cc(-c2cccc(C(F)(F)C(=O)O)c2)n1 [Example 81(a), (3-{6-[2-(2,4-Dichloro-phenyl)-ethylamino]-2-methoxy-pyrimidin-4-yl}-phenyl)-difluoro-acetic acid] |
| 44 | COc1ccc(CCNc2cc(-c3ccc(CN4CCCC4)s3)nc(OC)n2)cc1 [Example 13(a), [2-(4-Methoxy-phenyl)-ethyl]-[2-methoxy-6-(5-pyrrolidin-1-ylmethyl-thiophen-2-yl)-pyrimidin-4-yl]-amine] |
| 9 | COCC(=O)NCc1cc(-c2cc(NCCc3ccc(OC)cc3)nc(OC)n2)ccc1F [Example 28, N-(2-Fluoro-5-{2-methoxy-6-[2-(4-methoxy-phenyl)-ethylamino]-pyrimidin-4-yl}-benzyl)-2-methoxy-acetamide hydrochloride] |
| 219 | CCc1nc(NCCc2ccc(OC)cc2)cc(-c2cccc(OC)c2)n1 [Example 18, [2-Ethyl-6-(3-methoxy-phenyl)-pyrimidin-4-yl]-[2-(4-methoxy-phenyl)-ethyl]-amine] |
| 0.3 | COc1nc(NCCc2ccc(Cl)cc2Cl)cc(-c2cccc(C(=O)O)c2)n1 [Example 35(w), 3-{6-[2-(2,4-dichloro-phenyl)-ethylamino]-2-methoxy-pyrimidin-4-yl}-benzoic acid] |
| 60 | CCOC(=O)C(C)(C)Oc1cccc(-c2cc(NCCc3ccc(OC)cc3)nc(OC)n2)c1 [Example 22(a), 2-(3-{2-Methoxy-6-[2-(4-methoxy-phenyl)-ethylamino]-pyrimidin-4-yl}-phenoxy)-2-methyl-propionic acid ethyl ester] |
| 0.4 | COc1nc(NCCc2ccc(Cl)cc2Cl)cc(-c2cccc(OCC#N)c2)n1 [Example 22(e), (3-{6-[2-(2,4-Dichloro-phenyl)-ethylamino]-2-methoxy-pyrimidin-4-yl}-phenoxy)-acetonitrile] |
| 6730 | COc1ccc(CCNc2cc(-c3ccc(OC)c(OC)c3)nc(OC(C)C)n2)cc1OC [Example 17(a), [2-(3,4-Dimethoxy-phenyl)-ethyl]-[6-(3,4-dimethoxy-phenyl)-2-isopropoxy-pyrimidin-4-yl]-amine] |
| 7 | COc1nc(NCCc2ccc(Cl)cc2Cl)cc(-c2cccc(C(=O)OCCN3CCN(C)CC3)c2)n1 [Example 76, 3-{6-[2-(2,4-Dichloro-phenyl)-ethylamino]-2-methoxy-pyrimidin-4-yl}-benzoic acid 2-(4-methyl-piperazin-1-yl)-ethyl ester] |
| 7 | COc1ccc(CCNc2cc(-c3ccc4[nH]c(=O)oc4c3)nc(OC)n2)cc1 [Example 14(c), 6-{2-Methoxy-6-[2-(4-methoxy-phenyl)-ethylamino]-pyrimidin-4-yl}-3H-benzooxazol-2-one] |
| 2.4 | COc1nc(NCCc2c(F)cccc2Cl)cc(-c2cccc(CO)c2)n1 [Example 9(d), (3-{6-[2-(2-chloro-6-fluoro-phenyl)-ethylamino]-2-methoxy-pyrimidin-4-yl}-phenyl)-methanol] |
| 149 | COc1ccc(CCNc2cc(-c3ccc[n+]([O-])c3)nc(OC)n2)cc1 [Example 21(a), [2-Methoxy-6-(1-oxy-pyridin-3-yl)-pyrimidin-4-yl]-[2-(4-methoxy-phenyl)-ethyl]-amine] |
| 23 | COc1nc(NCC2OCCc3ccccc32)cc(-c2cccc(C(C)(C)C(=O)O)c2)n1 (stereo not drawn) [Example 91, 2-(3-{6-[(Isochroman-1-ylmethyl)-amino]-2-methoxy-pyrimidin-4-yl}-phenyl)-2-methyl-propionic acid] |
| 11 | COc1nc(NCCc2ccc(Cl)cc2Cl)cc(-c2ccc3nc(NC(C)=O)sc3c2)n1 [Example 94, N-(6-{6-[2-(2,4-Dichloro-phenyl)-ethylamino]-2-methoxy-pyrimidin-4-yl}-benzothiazol-2-yl)-acetamide] |

| SMILES | IC50 [nM] |
| --- | --- |
| COc1cccc(-c2cc(NCCc3ccc([N+](=O)[O-])cc3)nc(OC)n2)c1 [Example 43(b), [2-Methoxy-6-(3-methoxy-phenyl)-pyrimidin-4-yl]-[2-(4-nitro-phenyl)-ethyl]-amine] | 0.9 |
| COc1ccc(CCNc2cc(OCc3ccccc3OC)nc(OC)n2)cc1 [Example (48), [2-Methoxy-6-(2-methoxy-benzyloxy)-pyrimidin-4-yl]-[2-(4-methoxy-phenyl)-ethyl]-amine hydrochloride] | 12 |
| COc1ccc(CCNc2cc(-c3ccc(C(=O)O)s3)nc(OC)n2)cc1 [Example 8(a), 5-{2-Methoxy-6-[2-(4-methoxy-phenyl)-ethylamino]-pyrimidin-4-yl}-thiophene-2-carboxylic acid trifluoroacetate] | 0.33 |
| CCOC(=O)c1cc(-c2cc(NCCc3ccc(OC)cc3)nc(OC)n2)ccc1Cl [Example 35(z), 2-Chloro-5-{2-methoxy-6-[2-(4-methoxy-phenyl)-ethylamino]-pyrimidin-4-yl}-benzoic acid ethyl ester] | 32 |
